Reference: patent US10501522B2, “Peptides and combination of peptides for use in immunotherapy against various tumors” (IMMATICS BIOTECHNOLOGIES GMBH, priority 2015, dated 2019)

test system: CD8+ T cells; test: In vitro T-cell priming assay with aAPCs loaded with peptide/MHC and anti-CD28, pMHC multimer readout; assay type: cell-based, human; conditions: in vitro immunogenicity, HLA-A*02 restricted peptides; percentage of positive wells (among evaluable)
Source text: In order to obtain information regarding the immunogenicity of the TUMAPs of the present invention, the inventors performed investigations using an in vitro T-cell priming assay based on repeated stimulations of CD8+ T cells with artificial antigen presenting cells (aAPCs) loaded with peptide/MHC complexes and anti-CD28 antibody.
In order to perform in vitro stimulations by artificial antigen presenting cells loaded with peptide-MHC complex (pMHC) and anti-CD28 antibody, the inventors first isolated CD8+ T cells from fresh HLA-A*02 leukapheresis products via positive selection using CD8 microbeads (Miltenyi Biotec, Bergisch-Gladbach, Germany) of healthy donors obtained from the University clinics Mannheim, Germany, after informed consent. PBMCs and isolated CD8+ lymphocytes were incubated in T-cell medium (TCM) until use consisting of RPMI-Glutamax (Invitrogen, Karlsruhe, Germany) supplemented with 10% heat inactivated human AB serum (PAN-Biotech, Aidenbach, Germany), 100 U/ml Penicillin/100 μg/ml Streptomycin (Cambrex, Cologne, Germany), 1 mM sodium pyruvate (CC Pro, Oberdorla, Germany), 20 μg/ml Gentamycin (Cambrex). 2.5 ng/ml IL-7 (PromoCell, Heidelberg, Germany) and 10 U/ml IL-2 (Novartis Pharma, Nürnberg, Germany) were also added to the TCM at this step. Generation of pMHC/anti-CD28 coated beads, T-cell stimulations and readout was performed in a highly defined in vitro system using four different pMHC molecules per stimulation condition and 8 different pMHC molecules per readout condition.
The purified co-stimulatory mouse IgG2a anti human CD28 Ab 9.3 (Jung et al., 1987) was chemically biotinylated using Sulfo-N-hydroxysuccinimidobiotin as recommended by the manufacturer (Perbio, Bonn, Germany). Beads used were 5.6 μm diameter streptavidin coated polystyrene particles (Bangs Laboratories, Illinois, USA).
pMHC used for positive and negative control stimulations were A*0201/MLA-001 (peptide […] (SEQ ID NO. 289) from modified Melan-A/MART-1) and A*0201/DDX5-001 ([…] from DDX5, SEQ ID NO. 290), respectively.
800.000 beads/200 μl were coated in 96-well plates in the presence of 4×12.5 ng different biotin-pMHC, washed and 600 ng biotin anti-CD28 were added subsequently in a volume of 200 μl. Stimulations were initiated in 96-well plates by co-incubating […] CD8+ T cells with 2×10^5 washed coated beads in 200 μl TCM supplemented with 5 ng/ml IL-12 (PromoCell) for 3 days at 37° C. Half of the medium was then exchanged by fresh TCM supplemented with 80 U/ml IL-2 and incubating was continued for 4 days at 37° C. This stimulation cycle was performed for a total of three times. For the pMHC multimer readout using 8 different pMHC molecules per condition, a two-dimensional combinatorial coding approach was used as previously described (Andersen et al., 2012) with minor modifications encompassing coupling to 5 different fluorochromes. Finally, multimeric analyses were performed by staining the cells with Live/dead near IR dye (Invitrogen, Karlsruhe, Germany), CD8-FITC antibody clone SK1 (BD, Heidelberg, Germany) and fluorescent pMHC multimers. For analysis, a BD LSRII SORP cytometer equipped with appropriate lasers and filters was used. Peptide specific cells were calculated as percentage of total CD8+ cells. Evaluation of multimeric analysis was done using the FlowJo software (Tree Star, Oreg., USA). In vitro priming of specific multimer+ CD8+ lymphocytes was detected by comparing to negative control stimulations.

| Substance | Wells positive [%] |
| --- | --- |
| 157 (ILQDGQFLV; listed as Homo sapiens) [compound 157] | + (<20% = +) |
| 242 (KLQEEIPVL; listed as Homo sapiens) [compound 242] | + (<20% = +) |
| 255 (FLMKNSDLYGA; listed as Homo sapiens) [compound 255] | + (<20% = +) |
| 246 (ALAGIVTNV; listed as Homo sapiens) [compound 246] | + (<20% = +) |
| 14 (YTFSGDVQL; listed as Homo sapiens) [compound 14] | + (<20% = +) |
| 257 (KLIDHQGLYL; listed as Homo sapiens) [compound 257] | + (<20% = +) |
| 34 (TLNTLDINL; listed as Homo sapiens) [compound 34] | ++++ (≥70% = ++++) |
| 121 (ALYVQAPTV; listed as Homo sapiens) [compound 121] | + (<20% = +) |
| 260 (ALNESLVEC; listed as Homo sapiens) [compound 260] | + (<20% = +) |
| 263 (SIIEYLPTL; listed as Homo sapiens) [compound 263] | + (<20% = +) |
| 236 (KMSELQTYV; listed as Homo sapiens) [compound 236] | + (<20% = +) |
| 101 (SLLEVNEASSV; listed as Homo sapiens) [compound 101] | + (<20% = +) |
| 254 (ALGDKFLLRV; listed as Homo sapiens) [compound 254] | + (<20% = +) |
| 77 (ALYGNVQQV; listed as Homo sapiens) [compound 77] | + (<20% = +) |
| 89 (SLAETIFIV; listed as Homo sapiens) [compound 89] | + (<20% = +) |
| 17 (GLLPSAESIKL; listed as Homo sapiens) [compound 17] | + (<20% = +) |
| 267 (YLLDMPLWYL; listed as Homo sapiens) [compound 267] | + (<20% = +) |
| 97 (KLFEKSTGL; listed as Homo sapiens) [compound 97] | + (<20% = +) |
| 29 (KMISAIPTL; listed as Homo sapiens) [compound 29] | + (<20% = +) |
| 35 (VIIKGLEEI; listed as Homo sapiens) [compound 35] | + (<20% = +) |
| 27 (GLLGKVTSV; listed as Homo sapiens) [compound 27] | + (<20% = +) |
| 9 (SLITGQDLLSV; listed as Homo sapiens) [compound 9] | + (<20% = +) |
| 4 (VLFGELPAL; listed as Homo sapiens) [compound 4] | + (<20% = +) |
| 39 (YLEDGFAYV; listed as Homo sapiens) [compound 39] | ++++ (≥70% = ++++) |
| 264 (TLHDQVHLL; listed as Homo sapiens) [compound 264] | + (<20% = +) |
| 102 (GLYPVTLVGV; listed as Homo sapiens) [compound 102] | + (<20% = +) |
| 66 (AMFPDTIPRV; listed as Homo sapiens) [compound 66] | + (<20% = +) |
| 50 (ILLSVLHQL; listed as Homo sapiens) [compound 50] | + (<20% = +) |
| 233 (SLFESLEYL; listed as Homo sapiens) [compound 233] | + (<20% = +) |

same assay, conditions: percentage of positive donors; HLA-A*02 healthy donor CD8+ T cells, three stimulation cycles

| Substance | in vitro immunogenicity: donors |
| --- | --- |
| 288 (SLYKGLLSV; listed as Homo sapiens) [compound 288] | ++++ (≥70% = ++++) |

same assay, conditions: percentage of positive wells; HLA-A*02 healthy donor CD8+ T cells, three stimulation cycles

| Substance | in vitro immunogenicity: wells |
| --- | --- |
| 287 (KIQEILTQV; listed as Homo sapiens) [compound 287] | + (<20% = +) |
| 288 (SLYKGLLSV; listed as Homo sapiens) [compound 288] | ++ (20%-49% = ++) |
